According to US6046190A, “Hydroxyethylamino sulphonamides useful as retroviral protease inhibitors” (G.D. Searle & Co., priority 1996, dated 2000):
Where two headings read alike, the source gives them in different places.

Tests used:
[1] = target: T1, HIV protease (Human immunodeficiency virus type 1 group M subtype B, UniProt P04585); test: biochemical; assay type: biochemical
T1 construct: HIV protease is diluted in the assay buffer to a final enzyme concentration of 12.3 nanomolar, based on a molecular weight of 10,780
Procedure: The enzyme method is described below. […] The positive control is MVT-101 (Miller, M. et al, Science, 246, 1149 (1989)]. The assay conditions are as follows:
20 mM sodium phosphate, pH 6.4
The above described substrate is dissolved in DMSO, then diluted 10 fold in assay buffer. Final substrate concentration in the assay is 80 μM.
The final concentration of DMSO is 14% and the final concentration of glycerol is 18%. The test compound is dissolved in DMSO and diluted in DMSO to 10× the test concentration; 10 μl of the enzyme preparation is added, the materials mixed and then the mixture is incubated at ambient temperature for 15 minutes. The enzyme reaction is initiated by the addition of 40μl of substrate. The increase in fluorescence is monitored at 4 time points (0, 8, 16 and 24 minutes) at ambient temperature. Each assay is carried out in duplicate wells.

[2] = test system: HIV-1 in CEM cells; test: HIV inhibition assay of acutely infected CEM cells (tetrazolium/MTT colorimetric), antiviral efficacy; assay type: cell-based; conditions: Human immunodeficiency virus 1, CCRF-CEM, 168 h
Text: (§1) Methods, 20, 309-321 (1988).
(§2) [table 42: the next 8 blocks are its lines as printed, fixed-width]

[3] = Intrinsic toxicity of test compound in uninfected CEM cells (MTT); conditions: human
Text: as §1, §2

[4] = Table 21, above-described enzyme assay
[5] = Table 20, calculated IC50, enzyme 12.3 nanomolar, substrate 80 μM, pH 6.4
[6] = Table 19B, calculated IC50, enzyme 12.3 nanomolar, substrate 80 μM, pH 6.4
[7] = Table 21, CEM cells, 1000 TCID50 HIV-1, 7 days, read-out: EC50

Work on `COc1ccc(S(=O)(=O)N(CC(C)C)C[C@@H](O)[C@H](Cc2ccccc2)NC(=O)c2cccc(OC)c2)cc1` [Table 5A Entry 30] yielded an IC50 [1] of 30 nM.

With `COc1ccc(S(=O)(=O)N(CC(C)C)C[C@@H](O)[C@H](Cc2ccccc2)NC(=O)c2cc(N)ccc2C)cc1` [Example 54] the IC50 [1, 4] was 10 nM.

In the case of `COc1ccc(S(=O)(=O)N(CC(C)C)C[C@@H](O)[C@H](Cc2ccccc2)NC(=O)c2ccc(N(C)C)cc2C)cc1` [Example 52], the IC50 [1, 4] is reported as over 100 nM.

For `COc1ccc(S(=O)(=O)N(CC(C)C)CC(O)C(Cc2ccccc2)NC(=O)c2cccnc2)cc1` (stereo not shown) [Table 5A Entry 9], the IC50 [1, 5] was 67 nM.

With `COc1ccc(S(=O)(=O)N(CC(C)C)C[C@@H](O)[C@H](Cc2ccccc2)NC(=O)C(NC(=O)CN(C)C)C(C)(C)C)cc1` (stereo partly shown) [Table 3 Entry 10] the IC50 [1, 6] was 2.5 nM.

`COc1ccc(S(=O)(=O)N(CC(C)C)C[C@@H](O)[C@H](Cc2ccccc2)NC(=O)c2ccccc2OC)cc1` [Table 5A Entry 29] showed an IC50 [1, 5] of 190 nM.

Work on `CC(C)CCN(C[C@@H](O)[C@H](Cc1ccccc1)NC(=O)[C@@H](NC(=O)CN(C)C)C(C)(C)C)S(=O)(=O)c1ccccc1` [Example 11] yielded an EC50 [2] of 11 nM and a CC50 at 168 h [3] of 54 nM.

For `COc1ccc(S(=O)(=O)N(CC(C)C)C[C@@H](O)[C@H](Cc2ccccc2)NC(=O)c2ccccc2Cl)cc1` [Example 30], the EC50 [2] was 154 nM and the CC50 at 168 h [3] was 154000 nM.

In the case of `COc1ccc(S(=O)(=O)N(CC(C)C)C[C@@H](O)[C@H](Cc2ccccc2)NC(=O)OCc2ccncc2)cc1` [Example 22], the EC50 [2] is reported as 18 nM and the CC50 at 168 h [3] is reported as 31000 nM.

Work on `CC(C)CCN(C[C@@H](O)[C@H](Cc1ccccc1)NC(=O)C(NC(=O)CN(C)C)C(C)(C)C)S(=O)(=O)c1ccccc1` (stereo partly shown) [Table 3 Entry 8] yielded an IC50 [1, 6] of 3 nM.

With `COc1ccc(S(=O)(=O)N(CC(C)C)C[C@@H](O)[C@H](Cc2ccccc2)NC(=O)c2ccccc2)cc1` [Example 28] the EC50 [2] was 76 nM and the CC50 at 168 h [3] was 213000 nM.

`COc1ccc(S(=O)(=O)N(CC(C)C)C[C@@H](O)[C@H](Cc2ccccc2)NC(=O)C2CCc3ccccc3C2)cc1` (stereo partly shown) [Table 5A Entry 4] showed an IC50 [1] of 10 nM.

For `COCCCN(C[C@@H](O)[C@H](Cc1ccccc1)NC(=O)OCc1ccccc1)S(=O)(=O)c1ccccc1` [Example 9], the EC50 [2] was 398 nM and the CC50 at 168 h [3] was 15 nM.

With `COc1ccc(S(=O)(=O)N(CC(C)C)CC(O)C(Cc2ccccc2)NC(=O)c2ccccc2Cl)cc1` (stereo not shown) [Table 5A Entry 12] the IC50 [1, 5] was 6 nM.

`COc1ccc(S(=O)(=O)N(CC(C)C)CC(O)C(Cc2ccccc2)NC(=O)c2ccccc2C(C)C)cc1` (stereo not shown) [Table 5A Entry 14] showed an IC50 [1, 5] of 49 nM.

In the case of `COc1ccc(S(=O)(=O)N(CC(C)C)C[C@@H](O)[C@H](Cc2ccccc2)NC(=O)c2c(C)cccc2C)cc1` [Example 32], the EC50 [2] is reported as 98 nM and the CC50 at 168 h [3] is reported as 17000 nM.

`CC(C)CCN(C[C@@H](O)[C@H](Cc1ccccc1)NC(=O)[C@H](Cc1cnc[nH]1)NC(=O)c1ccc2ccccc2n1)S(=O)(=O)c1ccccc1` [Example 12] gave an EC50 [2] of 12 nM and a CC50 at 168 h [3] of 7.5 nM.

For `COc1ccc(S(=O)(=O)N(CC(C)C)CC(O)C(Cc2ccccc2)NC(=O)c2ccccc2)cc1` (stereo not shown) [Table 5A Entry 25], the IC50 [1, 5] was 14 nM.

Work on `CC(C)CCN(C[C@@H](O)[C@H](Cc1ccccc1)NC(=O)[C@H](CC(N)=O)NC(=O)c1ccc2ccccc2n1)S(C)(=O)=O` [Example 4] yielded an EC50 [2] of 64 nM and a CC50 at 168 h [3] of 28 nM.

Molecule `CC(C)CCN(C[C@@H](O)[C@H](Cc1ccccc1)NC(=O)OCc1ccccc1)S(=O)(=O)c1ccccc1` [Example 1] has an EC50 [2] of 55 nM and a CC50 at 168 h [3] of 27 nM.

Work on `CC(C)CN(C[C@@H](O)[C@H](Cc1ccccc1)NC(=O)OCc1cccnc1)S(=O)(=O)c1ccccc1` [Example 16] yielded an EC50 [2] of 80 nM and a CC50 at 168 h [3] of 62000 nM.

Molecule `COc1ccc(S(=O)(=O)N(CC(C)C)CC(O)C(Cc2ccccc2)NC(=O)c2ccncc2)cc1` (stereo not shown) [Table 5A Entry 11] has an IC50 [1, 5] of 18 nM.

`COc1ccc(S(=O)(=O)N(CC(C)C)C[C@@H](O)[C@H](Cc2ccccc2)NC(=O)OC(C)(C)C)cc1` [Example 27] gave an EC50 [2] of 177 nM and a CC50 at 168 h ([3]; cem cells) of 300000 nM.

Molecule `COc1ccc(COC(=O)NC[C@@H](C)C(=O)N[C@@H](Cc2ccccc2)[C@H](O)CN(CCC(C)C)S(=O)(=O)c2ccccc2)cc1` [Example 3] has an EC50 [2] of 11 nM and a CC50 at 168 h [3] of 780 nM.

Work on `COc1ccc(S(=O)(=O)N(CC(C)C)C[C@@H](O)[C@H](Cc2ccccc2)NC(=O)c2ccc(N)cc2C)cc1` [Example 51] yielded an IC50 [1, 4] of 9 nM and an EC50 [2, 7] of under 20 nM.

Molecule `CC(C)CCN(C[C@@H](O)[C@H](Cc1ccccc1)NC(=O)[C@H](CC(N)=O)NC(=O)c1ccc2ccccc2n1)S(=O)(=O)c1ccccc1` [Example 2] has an EC50 [2, 7] of 5 nM and a CC50 at 168 h [3] of 203 nM.

Molecule `CSCCCN(C[C@@H](O)[C@H](Cc1ccccc1)NC(=O)OCc1ccccc1)S(=O)(=O)c1ccccc1` [Example 10] has an EC50 [2] of 700 nM and a CC50 at 168 h [3] of 12 nM.

Work on `CC(C)CCN(C[C@@H](O)[C@H](Cc1ccccc1)NC(=O)C(NC(=O)OCc1ccccc1)C(C)(C)C)S(C)(=O)=O` (stereo partly shown) [Table 3 Entry 1] yielded an IC50 [1, 6] of 81 nM.

Work on `COc1ccc(S(=O)(=O)N(CC(C)C)CC(O)C(Cc2ccccc2)NC(=O)c2ccc(C)cc2)cc1` (stereo not shown) [Table 5A Entry 28] yielded an IC50 [1, 5] of 15 nM.

For `COc1ccc(S(=O)(=O)N(CC(C)C)C[C@@H](O)[C@H](Cc2ccccc2)NC(=O)c2ccc(C)cc2C)cc1` [Table 5A Entry 6], the IC50 [1] was 23 nM.

`CNCC(=O)NC(C(=O)N[C@@H](Cc1ccccc1)[C@H](O)CN(CCC(C)C)S(=O)(=O)c1ccccc1)C(C)(C)C` (stereo partly shown) [Table 3 Entry 6] showed an IC50 [1, 6] of 1.8 nM.

Work on `COc1ccc(S(=O)(=O)N(CC(C)C)C[C@@H](O)[C@H](Cc2ccccc2)NC(=O)OCc2cccnc2)cc1` [Example 17] yielded an EC50 [2] of 5 nM and a CC50 at 168 h [3] of 59000 nM.

Work on `COc1ccc(S(=O)(=O)N(CC(C)C)C[C@@H](O)[C@H](Cc2ccccc2)NC(=O)c2cccc(O)c2C)cc1` [Example 59] yielded an IC50 [1, 4] of 3 nM and an EC50 [2, 7] of 22 nM.

`COc1ccc(S(=O)(=O)N(CC(C)C)C[C@@H](O)[C@H](Cc2ccccc2)NC(=O)c2ccccc2C)cc1` [Example 29] gave an EC50 [2] of 105 nM and a CC50 at 168 h [3] of 196000 nM.

Molecule `COc1ccc(S(=O)(=O)N(CC(C)C)C[C@@H](O)[C@H](Cc2ccccc2)NC(=O)OCc2ccc[n+]([O-])c2)cc1` [Example 25] has an EC50 [2] of 120 nM and a CC50 at 168 h [3] of 167000 nM.

`COc1ccc(S(=O)(=O)N(CC(C)C)C[C@@H](O)[C@H](Cc2ccccc2)NC(=O)c2cccc(N)c2C)cc1` [Example 49] gave an IC50 [1, 4] of 6 nM and an EC50 [2, 7] of under 20 nM.

`O=C(N[C@@H](Cc1ccccc1)[C@H](O)CN(C1CCCCC1)S(=O)(=O)c1ccccc1)OCc1ccccc1` [Example 5] showed an EC50 [2] of 88 nM and a CC50 at 168 h [3] of 11 nM.

`CCCN(C[C@@H](O)[C@H](Cc1ccccc1)NC(=O)[C@H](CC(N)=O)NC(=O)OCc1ccccc1)S(=O)(=O)c1ccccc1` [Example 7] showed an IC50 [1, 4] of 3 nM, an EC50 [2] of 25 nM and a CC50 at 168 h ([3]; cem cells) of 39 nM.
